Experimental data: article PMC9181188 (International Journal of Molecular Sciences, 2022)
In brackets after ≈: the same amount, converted by molar mass. Read-outs that look alike come from different tables or passages of the source.

How the values were obtained:
SW620 cells = assay: MTT assay, SW620; format: cell-based, human; settings: for IC50: Homo sapiens, SW-620, 72 h, human metastatic colon cancer, 72 h, MTT, mean ± SD; for SI SW620: SI = IC50 for normal cell line (HaCaT)/IC50 cancer cell line
M. tuberculosis H37Rv = assay: MABA (microplate Alamar blue assay) MIC; format: cell-based; settings: Mycobacterium tuberculosis, 336 h, read-out: MIC M. tuberculosis H37Rv
P. aeruginosa ATCC 27853 = assay: MIC, twofold microdilution, standard strain; format: cell-based; settings: Pseudomonas aeruginosa, ATCC27853; 18 h of treatment; read-out: MIC P. aeruginosa ATCC 27853
[1] = tested on: SW480, SW620, and PC3 cancer cell lines; assay: MTT assay, cancer cell lines as a group; format: cell-based, human; settings: Homo sapiens, 72 h, all three cancer cell lines (SW480, SW620, PC3), read-out: IC50 against all tested cancer cell lines
E. coli ATCC 25922 = assay: MIC, twofold microdilution, standard strain; format: cell-based, Escherichia coli; settings: Escherichia coli, read-out: MIC E. coli ATCC 25922
S. aureus ATCC 29213 = assay: MIC, twofold microdilution, standard strain; format: cell-based; settings: Staphylococcus aureus, ATCC29213; 18 h of treatment; read-out: MIC S. aureus ATCC 29213
[2] = tested on: S. epidermidis KR 4243 829/19; assay: MIC, clinical S. epidermidis strain; format: cell-based; settings: Staphylococcus epidermidis, KR4243829/19, quinolone-susceptible, 18 h of treatment
S. aureus ATCC 6538 = assay: MIC, twofold microdilution, standard strain; format: cell-based; settings: Staphylococcus aureus, ATCC6538; 18 h of treatment; read-out: MIC S. aureus ATCC 6538
HaCaT cells = assay: MTT assay, HaCaT normal cells; format: cell-based; settings: human immortal keratinocyte cell line, 72 h, mean ± SD
[3] = tested on: S. epidermidis KR 4358/2 840/19; assay: MIC, clinical S. epidermidis strain; format: cell-based; settings: Staphylococcus epidermidis, KR4358/2840/19; clinical S. epidermidis, quinolone-susceptible, 18 h of treatment; read-out: MIC KR 4358/2 840/19
[4] = tested on: S. epidermidis T 5253 845/19; assay: MIC, clinical S. epidermidis strain; format: cell-based; settings: Staphylococcus epidermidis, T5253845/19, quinolone-resistant, 18 h of treatment
SW480 cells = assay: MTT assay, SW480; format: cell-based, human; settings: for IC50: Homo sapiens, SW480, 72 h, human primary colon cancer, 72 h, MTT, mean ± SD; for SI SW480: SI = IC50 for normal cell line (HaCaT)/IC50 cancer cell line
[5] = tested on: M. tuberculosis Spec. 192 (Sensitive to Tuberculostatics); assay: MABA (microplate Alamar blue assay) MIC; format: cell-based; settings: Mycobacterium tuberculosis, 336 h, read-out: MIC M. tuberculosis Spec. 192 (Sensitive to Tuberculostatics)
[6] = tested on: S. epidermidis T 5399 848/19; assay: MIC, clinical S. epidermidis strain; format: cell-based; settings: Staphylococcus epidermidis, T5399848/19, quinolone-susceptible, 18 h of treatment
[7] = tested on: S. epidermidis KR 4047 825/19; assay: MIC, clinical S. epidermidis strain; format: cell-based; settings: Staphylococcus epidermidis, KR4047825/19, quinolone-resistant, 18 h of treatment
[8] = tested on: S. epidermidis T 5501 851/19; assay: MIC, clinical S. epidermidis strain; format: cell-based; settings: Staphylococcus epidermidis, T5501851/19, read-out: MIC T 5501 851/19, quinolone-susceptible, 18 h of treatment
S. aureus ATCC 25923 = assay: MIC, twofold microdilution, standard strain; format: cell-based; settings: Staphylococcus aureus, ATCC25923; 18 h of treatment; read-out: MIC S. aureus ATCC 25923
[9] = tested on: S. epidermidis ATCC 12228; assay: MIC, twofold microdilution, standard strain; format: cell-based; settings: Staphylococcus epidermidis, ATCC12228; 18 h of treatment; read-out: MIC S. epidermidis ATCC 12228
[10] = tested on: S. epidermidis ATCC 35984; assay: MIC, twofold microdilution, standard strain; format: cell-based; settings: Staphylococcus epidermidis, ATCC35984; 18 h of treatment; read-out: MIC S. epidermidis ATCC 35984
S. aureus NCTC 4163 = assay: MIC, twofold microdilution, standard strain; format: cell-based; settings: Staphylococcus aureus, NCTC4163; 18 h of treatment; read-out: MIC S. aureus NCTC 4163
[11] = tested on: S. epidermidis KR 4313 834/19; assay: MIC, clinical S. epidermidis strain; format: cell-based; settings: Staphylococcus epidermidis, KR4313834/19, quinolone-susceptible, 18 h of treatment
[12] = tested on: standard staphylococci (S. aureus, S. epidermidis); assay: MIC, standard Gram-positive strains as a group; format: cell-based; settings: Staphylococcus aureus; range over standard Gram-positive strains; read-out: MIC against standard staphylococci
PC3 cells = assay: MTT assay, PC3; format: cell-based, human; settings: for IC50: Homo sapiens, PC-3, 72 h, human metastatic prostate cancer, 72 h, MTT, mean ± SD; for SI PC3: SI = IC50 for normal cell line (HaCaT)/IC50 cancer cell line
M. tuberculosis strains = assay: MABA MIC, mycobacterial strains as a group; format: cell-based; settings: Mycobacterium tuberculosis; summary over strains; read-out: MIC antimycobacterial (strain not specified)

Structure (SMILES): CCCCCCCC/C=C/CCCCCCCC(=O)N1CCCC2CN(c3c(F)cc4c(=O)c(C(=O)O)cn(C5CC5)c4c3OC)CC21 (stereo not shown) [Compound 5m, 1-Cyclopropyl-6-fluoro-8-methoxy-7-{1-(E)-octadec-9-enoyl-octahydro-pyrrolo[3,4-b]pyridin-6-yl}-4-oxo-1,4-dihydro-quinoline-3-carboxylic acid]
- IC50 (SW620 cells): 8.7 ± 1.2 µM
- SI SW620 (SW620 cells): 10.5
- MIC (M. tuberculosis H37Rv; 2 weeks of treatment): 512 µg/mL (≈ 769 µM)
- MIC (P. aeruginosa ATCC 27853): 128 µg/mL (≈ 192 µM)
- IC50 [1]: 5 to 10 µM
- MIC (E. coli ATCC 25922; ATCC25922, 18 h of treatment): > 512 µg/mL
- MIC (S. aureus ATCC 29213): > 512 µg/mL
- MIC [2]: > 512 µg/mL
- MIC (S. aureus ATCC 6538): > 512 µg/mL
- IC50 (HaCaT cells): 91.6 ± 4.6 µM
- MIC [3]: 512 µg/mL (≈ 769 µM)
- MIC [4]: 512 µg/mL (≈ 769 µM)
- IC50 (SW480 cells): 6.7 ± 0.6 µM
- SI SW480 (SW480 cells): 13.7
- MIC [5]: 256 µg/mL (≈ 384 µM)
- MIC [6]: 512 µg/mL (≈ 769 µM)
- MIC [7]: > 512 µg/mL
- MIC [8]: 512 µg/mL (≈ 769 µM)
- MIC (S. aureus ATCC 25923): > 512 µg/mL
- MIC [9]: > 512 µg/mL
- MIC [10]: > 512 µg/mL
- MIC (S. aureus NCTC 4163): > 512 µg/mL
- MIC [11]: 256 µg/mL (≈ 384 µM)
- MIC [12]: > 32 µg/mL
- IC50 (PC3 cells): 5.3 ± 1.3 µM
- SI PC3 (PC3 cells): 17.3

Structure (SMILES): CC/C=C\C/C=C\C/C=C\CCCCCCCC(=O)N1CCCC2CN(c3c(F)cc4c(=O)c(C(=O)O)cn(C5CC5)c4c3OC)CC21 (stereo not shown) [Compound 6m, 1-Cyclopropyl-6-fluoro-8-methoxy-7-{1-(9Z,12Z,15Z)-octadeca-9,12,15-trienoyl-octahydro-pyrrolo[3,4-b]pyridin-6-yl}-4-oxo-1,4-dihydro-quinoline-3-carboxylic acid]
- IC50 (SW620 cells): 15.6 ± 2.6 µM
- SI SW620 (SW620 cells): 6.2
- MIC (M. tuberculosis H37Rv): 256 µg/mL (≈ 387 µM)
- MIC (P. aeruginosa ATCC 27853): > 512 µg/mL
- MIC (E. coli ATCC 25922; ATCC25922, 18 h): 256 µg/mL (≈ 387 µM)
- MIC (S. aureus ATCC 29213): 16 µg/mL (≈ 24.2 µM)
- MIC [2]: 64 µg/mL (≈ 96.7 µM)
- MIC (S. aureus ATCC 6538): 16 µg/mL (≈ 24.2 µM)
- IC50 (HaCaT cells): 96.6 ± 5.5 µM
- MIC [3]: 64 µg/mL (≈ 96.7 µM)
- MIC [4]: 256 µg/mL (≈ 387 µM)
- IC50 (SW480 cells): 16.7 ± 3.1 µM
- SI SW480 (SW480 cells): 5.8
- MIC ([5]; 2 weeks of treatment): 128 µg/mL (≈ 193 µM)
- MIC [6]: 32 µg/mL (≈ 48.3 µM)
- MIC [7]: 256 µg/mL (≈ 387 µM)
- MIC [8]: 128 µg/mL (≈ 193 µM)
- MIC (S. aureus ATCC 25923): 32 µg/mL (≈ 48.3 µM)
- MIC [9]: 32 µg/mL (≈ 48.3 µM)
- MIC [10]: 32 µg/mL (≈ 48.3 µM)
- MIC (S. aureus NCTC 4163): 16 µg/mL (≈ 24.2 µM)
- MIC [11]: 64 µg/mL (≈ 96.7 µM)
- MIC (M. tuberculosis strains): ≥ 128 µg/mL
- MIC [12]: 8 to 32 µg/mL (≈ 12.1 to 48.3 µM)
- IC50 (PC3 cells): 14.4 ± 2.4 µM
- SI PC3 (PC3 cells): 6.7
